# From patent US12077503B2, “Substituted cyclic amides and their use as herbicides” (FMC CORPORATION, priority 2015, dated 2024)
# Assays:
# Experiment in all cases: Test D preemergence
# Type in all cases: in vivo
# Settings in all cases: scale 0 to 100
# [1] = test system: canarygrass (littleseed canarygrass, Phalaris minor)
# Description: (§1) Seeds of plant species selected from bluegrass (annual bluegrass, Poa annua), blackgrass (Alopecurus myosuroides), canarygrass (littleseed canarygrass, Phalaris minor), chickweed (common chickweed, Stellaria media), Galium (catchweed bedstraw, Galium aparine), bromegrass, downy (downy bromegrass, Bromus tectorum), field poppy (Papaver rhoeas), field violet (Viola arvensis), foxtail, green (green foxtail, Setaria viridis), deadnettle (henbit deadnettle, Lamium amplexicaule), ryegrass, Italian (Italian ryegrass, Lolium multiflorum), Kochia (Kochia scoparia), lambsquarters (Chenopodium album), oilseed rape (Brassica napus), pigweed (Amaranthus retroflexus), chamomile (scentless chamomile, Matricaria inodora), Russian thistle (Salsola kali), speedwell (bird's-eye speedwell, Veronica persica), barley, spring (spring barley, Hordeum vulgare), wheat, spring (spring wheat, Triticum aestivum), buckwheat, wild (wild buckwheat, Polygonum convolvulus), mustard, wild (wild mustard, Sinapis arvensis), oat, wild (wild oat, Avena fatua), radish, wild (wild radish, Raphanus raphanistrum), windgrass (Apera spica-venti), barley, winter (winter barley Hordeum vulgare), and wheat, winter (winter wheat, Triticum aestivum) were planted into a silt loam soil and treated preemergence with test chemicals formulated in a non-phytotoxic solvent mixture which included a surfactant.
# (§2) Treated plants and controls were maintained in a controlled growth environment approximately 21 d after which time all species were compared to controls and visually evaluated. Plant response ratings, summarized in Table D, are based on a scale of 0 to 100 where 0 is no effect and 100 is complete control. A dash (-) response means no test result.
# [2] = test system: Galium (catchweed bedstraw, Galium aparine)
# Description: as §1, §2
# [3] = test system: field violet (Viola arvensis)
# Description: as §1, §2
# [4] = test system: windgrass (Apera spica-venti)
# Description: as §1, §2
# [5] = test system: blackgrass (Alopecurus myosuroides)
# Description: as §1, §2
# [6] = test system: chamomile (scentless chamomile, Matricaria inodora)
# Description: as §1, §2
# [7] = test system: bromegrass, downy (downy bromegrass, Bromus tectorum)
# Description: as §1, §2
# Kochia (Kochia scoparia) = test system: Kochia (Kochia scoparia)
# Description: as §1, §2
# [8] = test system: chickweed (common chickweed, Stellaria media)
# Description: as §1, §2
# [9] = test system: barley, winter (winter barley Hordeum vulgare)
# Description: as §1, §2
# [10] = test system: mustard, wild (wild mustard, Sinapis arvensis)
# Description: as §1, §2
# [11] = test system: barley, spring (spring barley, Hordeum vulgare)
# Description: as §1, §2
# [12] = test system: foxtail, green (green foxtail, Setaria viridis)
# Description: as §1, §2
# [13] = test system: oilseed rape (Brassica napus)
# Description: as §1, §2
# [14] = test system: wheat, winter (winter wheat, Triticum aestivum)
# Description: as §1, §2
# [15] = test system: bluegrass (annual bluegrass, Poa annua)
# Description: as §1, §2
# [16] = test system: ryegrass, Italian (Italian ryegrass, Lolium multiflorum)
# Description: as §1, §2
# [17] = test system: oat, wild (wild oat, Avena fatua)
# Description: as §1, §2
# [18] = test system: Russian thistle (Salsola kali)
# Description: as §1, §2
# [19] = test system: buckwheat, wild (wild buckwheat, Polygonum convolvulus)
# Description: as §1, §2
# [20] = test system: field poppy (Papaver rhoeas)
# Description: as §1, §2
# [21] = test system: wheat, spring (spring wheat, Triticum aestivum)
# Description: as §1, §2
smiles,measurement,setting,value
CN1CC(c2ccc(C(F)(F)F)cc2)C(C(=O)Nc2ccccc2S(C)(=O)=O)C1=O (centres unmarked) [Compound 624],Plant response rating: Canarygrass,[1]; 31 g ai/ha,0
same,Plant response rating: Canarygrass,[1]; 62 g ai/ha,15
same,Plant response rating: Canarygrass,[1]; 125 g ai/ha,25
same,Plant response rating: Canarygrass,[1]; 250 g ai/ha,45
same,Plant response rating: Galium,[2]; 31 g ai/ha,0
same,Plant response rating: Galium,[2]; 62 g ai/ha,0
same,Plant response rating: Galium,[2]; 125 g ai/ha,0
same,Plant response rating: Galium,[2]; 250 g ai/ha,0
same,Plant response rating: Field Violet,[3]; 31 g ai/ha,10
same,Plant response rating: Field Violet,[3]; 62 g ai/ha,10
same,Plant response rating: Field Violet,[3]; 125 g ai/ha,10
same,Plant response rating: Field Violet,[3]; 250 g ai/ha,10
same,Plant response rating: Windgrass,[4]; 31 g ai/ha,15
same,Plant response rating: Windgrass,[4]; 62 g ai/ha,25
same,Plant response rating: Windgrass,[4]; 125 g ai/ha,85
same,Plant response rating: Windgrass,[4]; 250 g ai/ha,95
same,Plant response rating: Blackgrass,[5]; 31 g ai/ha,5
same,Plant response rating: Blackgrass,[5]; 62 g ai/ha,5
same,Plant response rating: Blackgrass,[5]; 125 g ai/ha,15
same,Plant response rating: Blackgrass,[5]; 250 g ai/ha,85
same,Plant response rating: Chamomile,[6]; 31 g ai/ha,0
same,Plant response rating: Chamomile,[6]; 62 g ai/ha,95
same,Plant response rating: Chamomile,[6]; 125 g ai/ha,90
same,Plant response rating: Chamomile,[6]; 250 g ai/ha,100
same,"Plant response rating: Bromegrass, Downy",[7]; 31 g ai/ha,0
same,"Plant response rating: Bromegrass, Downy",[7]; 62 g ai/ha,10
same,"Plant response rating: Bromegrass, Downy",[7]; 125 g ai/ha,20
same,"Plant response rating: Bromegrass, Downy",[7]; 250 g ai/ha,20
same,Plant response rating: Kochia,Kochia (Kochia scoparia); 31 g ai/ha,0
same,Plant response rating: Kochia,Kochia (Kochia scoparia); 62 g ai/ha,5
same,Plant response rating: Kochia,Kochia (Kochia scoparia); 125 g ai/ha,15
same,Plant response rating: Kochia,Kochia (Kochia scoparia); 250 g ai/ha,85
same,Plant response rating: Chickweed,[8]; 31 g ai/ha,15
same,Plant response rating: Chickweed,[8]; 125 g ai/ha,60
same,Plant response rating: Chickweed,[8]; 250 g ai/ha,85
same,"Plant response rating: Barley, Winter",[9]; 31 g ai/ha,0
same,"Plant response rating: Barley, Winter",[9]; 62 g ai/ha,0
same,"Plant response rating: Barley, Winter",[9]; 125 g ai/ha,0
same,"Plant response rating: Barley, Winter",[9]; 250 g ai/ha,40
same,"Plant response rating: Mustard, Wild",[10]; 31 g ai/ha,15
same,"Plant response rating: Mustard, Wild",[10]; 62 g ai/ha,30
same,"Plant response rating: Mustard, Wild",[10]; 250 g ai/ha,70
same,"Plant response rating: Barley, Spring",[11]; 31 g ai/ha,0
same,"Plant response rating: Barley, Spring",[11]; 62 g ai/ha,0
same,"Plant response rating: Barley, Spring",[11]; 125 g ai/ha,5
same,"Plant response rating: Barley, Spring",[11]; 250 g ai/ha,40
same,"Plant response rating: Foxtail, Green",[12]; 31 g ai/ha,40
same,"Plant response rating: Foxtail, Green",[12]; 62 g ai/ha,50
same,"Plant response rating: Foxtail, Green",[12]; 125 g ai/ha,90
same,"Plant response rating: Foxtail, Green",[12]; 250 g ai/ha,95
same,Plant response rating: Oilseed Rape,[13]; 31 g ai/ha,0
same,Plant response rating: Oilseed Rape,[13]; 62 g ai/ha,25
same,Plant response rating: Oilseed Rape,[13]; 125 g ai/ha,35
same,Plant response rating: Oilseed Rape,[13]; 250 g ai/ha,65
same,"Plant response rating: Wheat, Winter",[14]; 31 g ai/ha,0
same,"Plant response rating: Wheat, Winter",[14]; 62 g ai/ha,0
same,"Plant response rating: Wheat, Winter",[14]; 125 g ai/ha,5
same,"Plant response rating: Wheat, Winter",[14]; 250 g ai/ha,10
same,Plant response rating: Bluegrass,[15]; 31 g ai/ha,10
same,Plant response rating: Bluegrass,[15]; 62 g ai/ha,25
same,Plant response rating: Bluegrass,[15]; 125 g ai/ha,55
same,Plant response rating: Bluegrass,[15]; 250 g ai/ha,65
same,"Plant response rating: Ryegrass, Italian",[16]; 31 g ai/ha,0
same,"Plant response rating: Ryegrass, Italian",[16]; 62 g ai/ha,0
same,"Plant response rating: Ryegrass, Italian",[16]; 125 g ai/ha,25
same,"Plant response rating: Ryegrass, Italian",[16]; 250 g ai/ha,25
same,"Plant response rating: Oat, Wild",[17]; 31 g ai/ha,0
same,"Plant response rating: Oat, Wild",[17]; 62 g ai/ha,5
same,"Plant response rating: Oat, Wild",[17]; 125 g ai/ha,15
same,"Plant response rating: Oat, Wild",[17]; 250 g ai/ha,35
same,Plant response rating: Russian Thistle,[18]; 31 g ai/ha,0
same,Plant response rating: Russian Thistle,[18]; 62 g ai/ha,30
same,Plant response rating: Russian Thistle,[18]; 125 g ai/ha,10
same,Plant response rating: Russian Thistle,[18]; 250 g ai/ha,50
same,"Plant response rating: Buckwheat, Wild",[19]; 31 g ai/ha,0
same,"Plant response rating: Buckwheat, Wild",[19]; 62 g ai/ha,0
same,"Plant response rating: Buckwheat, Wild",[19]; 125 g ai/ha,15
same,"Plant response rating: Buckwheat, Wild",[19]; 250 g ai/ha,50
same,Plant response rating: Field Poppy,[20]; 31 g ai/ha,15
same,Plant response rating: Field Poppy,[20]; 62 g ai/ha,25
same,Plant response rating: Field Poppy,[20]; 125 g ai/ha,100
same,Plant response rating: Field Poppy,[20]; 250 g ai/ha,100
same,"Plant response rating: Wheat, Spring",[21]; 31 g ai/ha,5
same,"Plant response rating: Wheat, Spring",[21]; 62 g ai/ha,10
same,"Plant response rating: Wheat, Spring",[21]; 125 g ai/ha,15
same,"Plant response rating: Wheat, Spring",[21]; 250 g ai/ha,40
